Data taken from ChEMBL document CHEMBL4823287, “Design and synthesis of novel 5-alkynyl pyrimidine nucleosides derivatives: Influence of C-6-substituent on antituberculosis activity” (2021).
In brackets after ≈: the same amount, converted by molar mass.

Assays:
[1] = system: Mycobacterium tuberculosis; assay: Antimycobacterial activity against Mycobacterium bovis BCG assessed as inhibition of bacterial growth at 50 ug/ml measured by microplate alamar blue assay; type: functional; settings: variant bovis BCG
[2] = system: Mycobacterium tuberculosis; assay: Antimycobacterial activity against Mycobacterium bovis BCG assessed as inhibition of bacterial growth at 1 to 5 ug/ml measured by microplate alamar blue assay; type: functional, variant bovis BCG; settings: dose 1-5 µg/ml; at 1 to 5 µg/mL
[3] = system: Mycobacterium tuberculosis; assay: Antimycobacterial activity against Mycobacterium bovis BCG assessed as inhibition of bacterial growth at 25 ug/ml measured by microplate alamar blue assay; type: functional; settings: variant bovis BCG
[4] = system: Mycobacterium tuberculosis; assay: Antimycobacterial activity against Mycobacterium bovis BCG assessed as inhibition of bacterial growth at measured by microplate alamar blue assay; type: functional; settings: variant bovis BCG
[5] = system: Mycobacterium tuberculosis; assay: Antimycobacterial activity against Mycobacterium bovis BCG assessed as inhibition of bacterial growth at 1 ug/ml measured by microplate alamar blue assay; type: functional; settings: variant bovis BCG
[6] = system: Mycobacterium tuberculosis; assay: Antimycobacterial activity against Mycobacterium bovis BCG assessed as inhibition of bacterial growth at 100 ug/ml measured by microplate alamar blue assay; type: functional; settings: variant bovis BCG
[7] = system: Mycobacterium tuberculosis; assay: Antimycobacterial activity against Mycobacterium bovis BCG assessed as inhibition of bacterial growth at 10 ug/ml measured by microplate alamar blue assay; type: functional; settings: variant bovis BCG
[8] = system: Mycobacterium tuberculosis; assay: Antimycobacterial activity against Mycobacterium bovis BCG assessed as inhibition of bacterial growth at 5 ug/ml measured by microplate alamar blue assay; type: functional; settings: variant bovis BCG

CCCCC#Cc1c(C)n([C@@H]2O[C@H](CO)[C@@H](O)[C@H]2O)c(=O)[nH]c1=O
inhibition at 50 µg/mL [1]: 100% | inhibition (INH) [2]: 10% | inhibition at 25 µg/mL [3]: 60% | MIC50 [4]: 18.6 µg/mL (≈ 55 µM)

Cc1c(C#CC(O)c2ccccc2)c(=O)[nH]c(=O)n1[C@@H]1O[C@H](CO)[C@@H](O)[C@H]1O (stereo partly specified)
inhibition at 1 µg/mL [5]: 100% | MIC50 [4]: 0.7 µg/mL (≈ 1.8 µM)

CC#Cc1c(C)n([C@@H]2O[C@H](CO)[C@@H](O)[C@H]2O)c(=O)[nH]c1=O
inhibition at 100 µg/mL [6]: 90% | inhibition at 50 µg/mL [1]: 50% | inhibition at 10 µg/mL [7]: 0% | MIC50 [4]: 50 µg/mL (≈ 169 µM)

CCCCCCC#Cc1c(C)n([C@@H]2O[C@H](CO)[C@@H](O)[C@H]2O)c(=O)[nH]c1=O
inhibition at 100 µg/mL [6]: 90% | inhibition at 50 µg/mL [1]: 60% | MIC50 [4]: < 50 µg/mL

Cc1c(C#CC2CC2)c(=O)[nH]c(=O)n1[C@@H]1O[C@H](CO)[C@@H](O)[C@H]1O
inhibition at 100 µg/mL [6]: 90% | inhibition (INH) [2]: 50% | inhibition at 10 µg/mL [7]: 80% | MIC50 [4]: 2.1 µg/mL (≈ 6.52 µM)

Cc1c(C#C[Si](C)(C)C)c(=O)[nH]c(=O)n1[C@@H]1O[C@H](CO)[C@@H](O)[C@H]1O
inhibition at 100 µg/mL [6]: 0%

CCCC#Cc1c(C)n([C@@H]2O[C@H](CO)[C@@H](O)[C@H]2O)c(=O)[nH]c1=O
inhibition at 100 µg/mL [6]: 90% | inhibition at 50 µg/mL [1]: 60% | inhibition at 10 µg/mL [7]: 0% | MIC50 [4]: < 50 µg/mL

Cc1c(C#CC2CCCCC2)c(=O)[nH]c(=O)n1[C@@H]1O[C@H](CO)[C@@H](O)[C@H]1O
inhibition at 50 µg/mL [1]: 100% | inhibition (INH) [2]: 10% | inhibition at 25 µg/mL [3]: 70% | MIC50 [4]: 14.7 µg/mL (≈ 40.3 µM)

Cc1c(C#Cc2ccccc2)c(=O)[nH]c(=O)n1[C@@H]1O[C@H](CO)[C@@H](O)[C@H]1O
inhibition at 100 µg/mL [6]: 90% | inhibition at 50 µg/mL [1]: 75% | inhibition (INH) [2]: 50% | inhibition at 10 µg/mL [7]: 75% | MIC50 [4]: 2.2 µg/mL (≈ 6.14 µM)

CCC#Cc1c(C)n([C@@H]2O[C@H](CO)[C@@H](O)[C@H]2O)c(=O)[nH]c1=O
inhibition at 100 µg/mL [6]: 90% | inhibition at 50 µg/mL [1]: 50% | inhibition at 10 µg/mL [7]: 0% | MIC50 [4]: 50 µg/mL (≈ 161 µM)

Cc1c(C#CCC(C)C)c(=O)[nH]c(=O)n1[C@@H]1O[C@H](CO)[C@@H](O)[C@H]1O
inhibition at 50 µg/mL [1]: 100% | inhibition (INH) [2]: 10% | inhibition at 25 µg/mL [3]: 60% | MIC50 [4]: 18.9 µg/mL (≈ 55.9 µM)

N[C@@H]1CONC1=O [CYCLOSERINE]
inhibition at 10 µg/mL [7]: 71% | inhibition at 5 µg/mL [8]: 50% | MIC50 [4]: 5.1 µg/mL (≈ 50 µM)

NNC(=O)c1ccncc1 [ISONIAZID]
inhibition at 1 µg/mL [5]: 100% | MIC50 [4]: 0.9 µg/mL (≈ 6.56 µM)

CO[C@H]1/C=C/O[C@@]2(C)Oc3c(C)c(O)c4c(O)c(c(/C=N/N5CCN(C)CC5)c(O)c4c3C2=O)NC(=O)/C(C)=C\C=C\[C@H](C)[C@H](O)[C@@H](C)[C@@H](O)[C@@H](C)[C@H](OC(C)=O)[C@@H]1C [RIFAMPIN]
inhibition at 1 µg/mL [5]: 100% | MIC50 [4]: 0.8 µg/mL (≈ 0.972 µM)
